From publication PMC6470533, “Structure–Activity Study, Characterization, and Mechanism of Action of an Antimicrobial Peptoid D2 and Its D- and L-Peptide Analogues” (Molecules, 2019)
≈ marks a conversion by molar mass, not a printed value. Non-standard residues stand in square brackets, D forms with d. Residues, ends and D or L forms follow the SMILES beside them. N(1-naphthylmethyl)Gly = O=C(O)CNCc1cccc2ccccc12; d1Nal = N[C@H](Cc1cccc2ccccc12)C(=O)O; N(4-MeBn)Gly = Cc1ccc(CNCC(=O)O)cc1; dNle = CCCC[C@@H](N)C(=O)O; NBuGly = CCCCNCC(=O)O; Nlys = NCCCCNCC(=O)O

What was measured:
[1] = test system: Methicillin sensitive Staphylococcus pseudintermedius (26916); format: cell-based; settings: 18 h
[2] = test system: Methicillin resistant Staphylococcus pseudintermedius, (C22963); format: cell-based; settings: 18 h
[3] = test system: Staphylococcus aureus (ATCC 29213); format: cell-based; settings: ATCC 29213, 18 h
[4] = test system: Pseudomonas aeruginosa (ATCC 27853); format: cell-based; settings: ATCC 27853, 18 h
Procedure: To explore the antimicrobial activity of the library of peptides and peptidomimetics, they were tested against Acinetobacter baumannii, Corynebacterium auriscanis, Escherichia coli, Enterococcus faecalis, Enterococcus faecium, Klebsiella pneumonia, Proteus mirabilis, and Pseudomonas aeruginosa. Bacteria grown on agar plates for 18 h at 37 °C were diluted to ~1 × 10^8 CFU/mL in Mueller–Hinton broth (MHB). Two-fold serial dilutions of peptides and peptidomimetics in MHB II were inoculated with bacteria to achieve a final concentration of 5 × 10^5 CFU/mL in polypropylene 96 U-well microtiter plates (Almeco, Esbjerg, Denmark), followed by incubation at 37 °C in ambient air for 18 h. The MIC values were determined as the lowest concentration showing no visible bacterial growth. Experiments were performed twice (in technical triplicates) on two different days.

[5] = test system: red blood cell (RBC); settings: 0.5% RBC suspension in PBS, 1 h, 37 °C, read at 414 nm, normalized to mellitin and PBS, triplicates
Procedure: Briefly, 75 µL of peptide in PBS was mixed with 75 µL of a 0.5% red blood cell (RBC) suspension in PBS, and incubated for 1 h at 37 °C. The hemoglobin release was then measured at 414 nm and normalized, using mellitin as positive control and PBS as negative control. Experiments were done in triplicates.

Row | SMILES | MIC MSSP [1] | MIC MRSP [2] | MIC SA [3] | MIC PA [4] | HA, percentage of hemolysis at 150 µM [5]
1 | CCCCN(CC(N)=O)C(=O)CN(CCCCN)C(=O)CN(Cc1cccc2ccccc12)C(=O)CN(CCCCN)C(=O)CN(Cc1ccc(C)cc1)C(=O)CN(Cc1cccc2ccccc12)C(=O)CN(CCCCN)C(=O)CN [compound 1] (H-G[Nlys][N(1-naphthylmethyl)Gly][N(4-MeBn)Gly][Nlys][N(1-naphthylmethyl)Gly][Nlys][NBuGly]-NH2; N-terminus assumed) | 4 µg/mL (≈ 3.55 µM) | 4 µg/mL (≈ 3.55 µM) | 16 µg/mL (≈ 14.2 µM) | 32 µg/mL (≈ 28.4 µM) | 42%
2 | CCCCN(CC(N)=O)C(=O)CN(CCCCN)C(=O)CN(Cc1cccc2ccccc12)C(=O)CN(CCCCN)C(=O)CN(Cc1ccc(C)cc1)C(=O)CN(Cc1cccc2ccccc12)C(=O)CNC(=O)CNCCCCN [compound 2] (H-[Nlys]G[N(1-naphthylmethyl)Gly][N(4-MeBn)Gly][Nlys][N(1-naphthylmethyl)Gly][Nlys][NBuGly]-NH2; N-terminus assumed) | 16 µg/mL (≈ 14.2 µM) | 8 µg/mL (≈ 7.1 µM) | 16 µg/mL (≈ 14.2 µM) | 64 µg/mL (≈ 56.8 µM) | 48%
3 | CCCCN(CC(N)=O)C(=O)CN(CCCCN)C(=O)CN(Cc1cccc2ccccc12)C(=O)CN(CCCCN)C(=O)CN(Cc1ccc(C)cc1)C(=O)CNC(=O)CN(CCCCN)C(=O)CNCCCCN [compound 3] (H-[Nlys][Nlys]G[N(4-MeBn)Gly][Nlys][N(1-naphthylmethyl)Gly][Nlys][NBuGly]-NH2; N-terminus assumed) | 64 µg/mL (≈ 60.5 µM) | 64 µg/mL (≈ 60.5 µM) | >64 µg/mL | >64 µg/mL | 56%
4 | CCCCN(CC(N)=O)C(=O)CN(CCCCN)C(=O)CN(Cc1cccc2ccccc12)C(=O)CN(CCCCN)C(=O)CNC(=O)CN(Cc1cccc2ccccc12)C(=O)CN(CCCCN)C(=O)CNCCCCN [compound 4] (H-[Nlys][Nlys][N(1-naphthylmethyl)Gly]G[Nlys][N(1-naphthylmethyl)Gly][Nlys][NBuGly]-NH2; N-terminus assumed) | 64 µg/mL (≈ 58.5 µM) | 32 µg/mL (≈ 29.2 µM) | >64 µg/mL | >64 µg/mL | 40%
5 | CCCCN(CC(N)=O)C(=O)CN(CCCCN)C(=O)CN(Cc1cccc2ccccc12)C(=O)CN(CCCCN)C(=O)[C@@H](Cc1ccccc1)NC(=O)[C@@H](Cc1cccc2ccccc12)NC(=O)[C@@H](CCCCN)NC(=O)[C@H](N)CCCCN [compound 14] (H-[dK][dK][d1Nal][dF][Nlys][N(1-naphthylmethyl)Gly][Nlys][NBuGly]-NH2; N-terminus assumed) | 4 µg/mL (≈ 3.38 µM) | 4 µg/mL (≈ 3.38 µM) | 16 µg/mL (≈ 13.5 µM) | 64 µg/mL (≈ 54 µM) | 
6 | CCCC[C@@H](NC(=O)CN(CCCCN)C(=O)[C@@H](Cc1cccc2ccccc12)NC(=O)CN(CCCCN)C(=O)[C@@H](Cc1ccccc1)NC(=O)[C@@H](Cc1cccc2ccccc12)NC(=O)CN(CCCCN)C(=O)CNCCCCN)C(N)=O [compound 15] (H-[Nlys][Nlys][d1Nal][dF][Nlys][d1Nal][Nlys][dNle]-NH2; N-terminus assumed) | 4 µg/mL (≈ 3.38 µM) | 4 µg/mL (≈ 3.38 µM) | 32 µg/mL (≈ 27 µM) | >64 µg/mL | 
7 | CCCCN(CC(N)=O)C(=O)[C@@H](CCCCN)NC(=O)CN(Cc1cccc2ccccc12)C(=O)[C@@H](CCCCN)NC(=O)CN(Cc1ccc(C)cc1)C(=O)CN(Cc1cccc2ccccc12)C(=O)[C@@H](CCCCN)NC(=O)[C@H](N)CCCCN [compound 16] (H-[dK][dK][N(1-naphthylmethyl)Gly][N(4-MeBn)Gly][dK][N(1-naphthylmethyl)Gly][dK][NBuGly]-NH2; N-terminus assumed) | 4 µg/mL (≈ 3.34 µM) | 4 µg/mL (≈ 3.34 µM) | 16 µg/mL (≈ 13.3 µM) | 64 µg/mL (≈ 53.4 µM) | 
